Drawing on patent publication US4742053A, “3-Isoquinoliniomethyl cephalosporin derivatives” (Banyu Pharmaceutical Co., Ltd., priority 1984, dated 1988), this text covers MIC for three compounds.

What all share (experiment): MIC by agar plate dilution method
What all share (format): cell-based

The subject of one experiment is P. cepacia 23. The note with it: Burkholderia cepacia; P. cepacia 23; 10^6 CFU/ml; read-out: Minimum Inhibitory Concentration. Here is the method: (§1) The minimum inhibitory concentrations (MIC: μg/ml) of the compounds of the present invention against various microorganisms were measured by an agar plate dilution method (inoculum size: 10^6 CFU/ml) by using Sensitivity Disk Agar (Nissui) in comparison with Cefotaxime and Ceftazidime as comparative compounds.
(§2) Minimum Inhibitory Concentration (μg/ml; 10^6 CFU/ml)

A further experiment relates to S. aureus JS-1. The note with it: Staphylococcus aureus, JS1; S. aureus JS-1; 10^6 CFU/ml; read-out: Minimum Inhibitory Concentration. Here is the method:
as §1, §2

For the next experiment, the system named is P. vulgaris No. 33. The note with it: Proteus vulgaris; P. vulgaris No. 33; 10^6 CFU/ml; read-out: Minimum Inhibitory Concentration. Here is the method: as §1, §2
The test system of the next experiment is P. vulgaris OB1043. The note with it: Proteus vulgaris. On the procedure:
as §1, §2

For another experiment, the system named is P. aeruginosa AKR17. The note with it: Pseudomonas aeruginosa, AKR17, P. aeruginosa AKR17; 10^6 CFU/ml; read-out: Minimum Inhibitory Concentration. Here is the method: as §1, §2
A further experiment concerns P. aeruginosa AK109. The note with it: Pseudomonas aeruginosa, AK109, P. aeruginosa AK109; 10^6 CFU/ml; read-out: Minimum Inhibitory Concentration. On the procedure: as §1, §2
Another experiment concerns A. calcoaceticus No. 14. The note with it: Acinetobacter calcoaceticus, NO.14, A. calcoaceticus No. 14; 10^6 CFU/ml; read-out: Minimum Inhibitory Concentration. Here is the method:
as §1, §2

A further experiment deals with S. marcescens No. 16-2. The note with it: Serratia marcescens, NO.162; S. marcescens No. 16-2; 10^6 CFU/ml; read-out: Minimum Inhibitory Concentration. Here is the method:
as §1, §2

In the next experiment the test system is E. coli ML1410/Rte16. The note with it: Escherichia coli, ML1410/RTE16, read-out: Minimum Inhibitory Concentration, E. coli ML1410/Rte16; 10^6 CFU/ml. On the procedure: as §1, §2
Another experiment has as its system E. coli W3630/Rms213. The note with it: Escherichia coli, W3630/RMS213, read-out: Minimum Inhibitory Concentration, E. coli W3630/Rms213; 10^6 CFU/ml. Here is the method: as §1, §2
Another experiment relates to P. mirabilis JY10. The note with it: Proteus mirabilis. Here is the method: as §1, §2
For the next experiment, the system named is E. coli NIHJJC-2. The note with it: Escherichia coli, NIHJJC2, E. coli NIHJJC-2; 10^6 CFU/ml; read-out: Minimum Inhibitory Concentration. Here is the method:
as §1, §2

A further experiment has as its system E. cloaceae Nek 39. The note with it: E. cloaceae Nek 39; 10^6 CFU/ml; read-out: Minimum Inhibitory Concentration. Here is the method:
as §1, §2

A further experiment concerns E. coli C/Rms149. The note with it: Escherichia coli, read-out: Minimum Inhibitory Concentration, E. coli C/Rms149; 10^6 CFU/ml. On the procedure:
as §1, §2

The next experiment concerns E. coli CSH. The note with it: Escherichia coli, 10^6 CFU/ml, read-out: Minimum Inhibitory Concentration. On the procedure:
as §1, §2

The test system of a further experiment is P. maltophilia IID 1275. The note with it: Stenotrophomonas maltophilia, IID1275; P. maltophilia IID 1275; 10^6 CFU/ml; read-out: Minimum Inhibitory Concentration. Here is the method: as §1, §2
A further experiment has as its system E. coli W3630/Rms212. The note with it: Escherichia coli, W3630/RMS212, read-out: Minimum Inhibitory Concentration, E. coli W3630/Rms212; 10^6 CFU/ml. On the procedure: as §1, §2
Another experiment has as its system E. coli CSH2. The note with it: Escherichia coli, 10^6 CFU/ml, read-out: Minimum Inhibitory Concentration. Here is the method:
as §1, §2

The subject of a further experiment is S. aureus NIHJJC-1. The note with it: Staphylococcus aureus, NIHJJC1, S. aureus NIHJJC-1; 10^6 CFU/ml; read-out: Minimum Inhibitory Concentration. On the procedure: as §1, §2
A further experiment concerns C. freundii No. 7. The note with it: Citrobacter freundii; C. freundii No. 7; 10^6 CFU/ml; read-out: Minimum Inhibitory Concentration. On the procedure:
as §1, §2

In a further experiment the test system is K. pneumoniae No. 42. The note with it: Klebsiella pneumoniae. On the procedure:
as §1, §2

The mark [1] stands for this setting: OB1043, P. vulgaris OB1043, 10^6 CFU/ml, read-out: Minimum Inhibitory Concentration.
Where [2] appears, read: P. mirabilis JY10, 10^6 CFU/ml, read-out: Minimum Inhibitory Concentration.
The mark [3] stands for this setting: K. pneumoniae No. 42, 10^6 CFU/ml, read-out: Minimum Inhibitory Concentration.

Values after ≈ are worked out from the molar mass of the structure shown. Read-outs that look alike come from different tables or passages of the source.

Regarding `CO/N=C(\C(=O)NC1C(=O)N2C(C(=O)[O-])=C(C[N+]3(C)CCc4cc(OC(C)=O)ccc4C3)CSC12)c1csc(N)n1` (stereo not drawn) [Ex. 9, 7-[(Z)-2-(2-aminothiazol-4-yl)-2-methoxyiminoacetamido]-3-(6-acetoxy-2-methyl-1,2,3,4-tetrahydro-2-isoquinolinium)methyl-3-cephem-4-carboxylate], the MIC with P. cepacia 23 was found to be 12.5 µg/mL (≈ 20.8 µM); in the experiment on S. aureus JS-1, 12.5 µg/mL (≈ 20.8 µM); in the experiment with P. vulgaris No. 33 it was 0.39 µg/mL (≈ 0.649 µM); in the experiment on P. vulgaris OB1043 (setting [1]) it was 0.78 µg/mL (≈ 1.3 µM); in the experiment on P. aeruginosa AKR17 it was 25 µg/mL (≈ 41.6 µM); in the experiment on P. aeruginosa AK109, 3.12 µg/mL (≈ 5.19 µM). The MIC in the experiment with A. calcoaceticus No. 14 is above 25 µg/mL; with S. marcescens No. 16-2, 12.5 µg/mL (≈ 20.8 µM); in the experiment on E. coli ML1410/Rte16 it was 0.2 µg/mL (≈ 0.333 µM); with E. coli W3630/Rms213, 3.12 µg/mL (≈ 5.19 µM); in the experiment with P. mirabilis JY10 (setting [2]) it was 1.56 µg/mL (≈ 2.6 µM); with E. coli NIHJJC-2 it was 0.2 µg/mL (≈ 0.333 µM). In addition, the MIC with E. cloaceae Nek 39 is 1.56 µg/mL (≈ 2.6 µM); in the experiment with E. coli C/Rms149, 0.2 µg/mL (≈ 0.333 µM); in the experiment with E. coli CSH, 1.56 µg/mL (≈ 2.6 µM); in the experiment on P. maltophilia IID 1275 it was above 25 µg/mL; in the experiment with E. coli W3630/Rms212, 0.2 µg/mL (≈ 0.333 µM); in the experiment on E. coli CSH2 it was 0.1 µg/mL (≈ 0.166 µM). The values for the MIC with S. aureus NIHJJC-1, with C. freundii No. 7 and in the experiment on K. pneumoniae No. 42 (setting [3]) were 0.39 µg/mL (≈ 0.649 µM), 6.25 µg/mL (≈ 10.4 µM) and 0.78 µg/mL (≈ 1.3 µM), respectively.
As for `CO/N=C(\C(=O)NC1C(=O)N2C(C(=O)[O-])=C(C[N+]3(C)CCc4cc(O)ccc4C3)CSC12)c1csc(N)n1` (stereo not drawn) [Ex. 10, 7-[(Z)-2-(2-aminothiazol-4-yl)-2-methoxyiminoacetamido]-3-(6-hydroxy-2-methyl-1,2,3,4-tetrahydro-2-isoquinolinium)methyl-3-cephem-4-carboxylate], the MIC is 6.25 µg/mL (≈ 11.2 µM) with P. cepacia 23; 6.25 µg/mL (≈ 11.2 µM) in the experiment with S. aureus JS-1; 0.1 µg/mL (≈ 0.179 µM) in the experiment with P. vulgaris No. 33; 0.39 µg/mL (≈ 0.698 µM) in the experiment on P. vulgaris OB1043 (OB1043, read-out: Minimum Inhibitory Concentration); above 25 µg/mL in the experiment with P. aeruginosa AKR17; 1.56 µg/mL (≈ 2.79 µM) in the experiment on P. aeruginosa AK109. Further, the MIC in the experiment on A. calcoaceticus No. 14 is 25 µg/mL (≈ 44.8 µM); in the experiment with S. marcescens No. 16-2 it was 6.25 µg/mL (≈ 11.2 µM); in the experiment with E. coli ML1410/Rte16 it was 0.1 µg/mL (≈ 0.179 µM); in the experiment on E. coli W3630/Rms213, 1.56 µg/mL (≈ 2.79 µM); in the experiment with P. mirabilis JY10 (setting [2]), 0.78 µg/mL (≈ 1.4 µM); in the experiment with E. coli NIHJJC-2 it was 0.1 µg/mL (≈ 0.179 µM). In addition, the MIC was 0.78 µg/mL (≈ 1.4 µM) with E. cloaceae Nek 39; 0.1 µg/mL (≈ 0.179 µM) in the experiment on E. coli C/Rms149; 0.78 µg/mL (≈ 1.4 µM) in the experiment with E. coli CSH; above 25 µg/mL with P. maltophilia IID 1275; 0.2 µg/mL (≈ 0.358 µM) with E. coli W3630/Rms212; at most 0.05 µg/mL in the experiment on E. coli CSH2. For the same compound, the MIC in the experiment with S. aureus NIHJJC-1 was 0.39 µg/mL (≈ 0.698 µM); in the experiment on C. freundii No. 7, 1.56 µg/mL (≈ 2.79 µM); in the experiment with K. pneumoniae No. 42 (setting [3]), 0.2 µg/mL (≈ 0.358 µM).
`CON=C(C(=O)NC1C(=O)N2C(C(=O)[O-])=C(C[N+]3(C)CCc4c(ccc(O)c4O)C3)CSC12)c1csc(N)n1` (stereo not drawn) [Ex. 11, 7-[(Z)-2-(2-aminothiazol-4-yl)-2-methoxyiminoacetamido]-3-(5,6-dihydroxy-2-methyl-1,2,3,4-tetrahydro-2-isoquinolinium)methyl-3-cephem-4-carboxylate]: the MIC worked out at 0.2 µg/mL (≈ 0.348 µM) in the experiment on P. cepacia 23; 25 µg/mL (≈ 43.5 µM) in the experiment on S. aureus JS-1; 0.2 µg/mL (≈ 0.348 µM) in the experiment on P. vulgaris No. 33; 1.56 µg/mL (≈ 2.71 µM) in the experiment on P. vulgaris OB1043 (setting [1]); 6.25 µg/mL (≈ 10.9 µM) in the experiment with P. aeruginosa AKR17; 0.2 µg/mL (≈ 0.348 µM) in the experiment on P. aeruginosa AK109. For the same compound, the MIC in the experiment on A. calcoaceticus No. 14 is 0.39 µg/mL (≈ 0.679 µM); in the experiment on S. marcescens No. 16-2 it was 12.5 µg/mL (≈ 21.8 µM); with E. coli ML1410/Rte16, 0.1 µg/mL (≈ 0.174 µM); in the experiment with E. coli W3630/Rms213 it was 0.78 µg/mL (≈ 1.36 µM); in the experiment on P. mirabilis JY10 (JY10, read-out: Minimum Inhibitory Concentration), 0.39 µg/mL (≈ 0.679 µM); in the experiment on E. coli NIHJJC-2 it was 0.05 µg/mL (≈ 0.087 µM). The MIC was 0.025 µg/mL (≈ 0.0435 µM) in the experiment on E. cloaceae Nek 39; 0.1 µg/mL (≈ 0.174 µM) in the experiment with E. coli C/Rms149; 0.78 µg/mL (≈ 1.36 µM) with E. coli CSH; above 50 µg/mL with P. maltophilia IID 1275; 0.025 µg/mL (≈ 0.0435 µM) in the experiment on E. coli W3630/Rms212; 0.39 µg/mL (≈ 0.679 µM) in the experiment on E. coli CSH2. Besides, the MIC with S. aureus NIHJJC-1 was 6.25 µg/mL (≈ 10.9 µM); in the experiment with C. freundii No. 7, 12.5 µg/mL (≈ 21.8 µM); in the experiment with K. pneumoniae No. 42 (NO.42, read-out: Minimum Inhibitory Concentration) it was 0.39 µg/mL (≈ 0.679 µM).
